From PubChem BioAssay (NCI) come the findings set out here.

The structures appear in SMILES notation.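 In this assay, cells in 96-well plates receive the compound at five concentrations for 48 hours. Endpoints are linearly interpolated between the surrounding concentrations. Abbreviation: GI50, concentration required for 50% inhibition of growth. TGI marks complete inhibition of growth.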

Among the test systems are SK-MEL-5 melanoma; UACC-62 melanoma; NCI-H522 lung; MDA-MB-231 breast; OVCAR-3 ovarian; A549 NSCLC; ACHN renal; DU-145 prostate; T-47D breast; NCI-H226 lung.
What all share (test): inhibition of tumour cell growth, NCI panel, 48 h

As to `S=c1ssc(Oc2ccccc2)c1Cl`, the GI50 in the assay on SK-MEL-5 melanoma was 17.3 µM; with UACC-62 melanoma, 14 µM; in the assay with NCI-H522 lung, 23.2 µM; in the assay on MDA-MB-231 breast, 14.2 µM; with OVCAR-3 ovarian it was 7.74 µM; in the assay on A549 NSCLC, 33.9 µM. Besides, the GI50 is 4.5 µM with ACHN renal, 14.5 µM with DU-145 prostate, 21.5 µM in the assay with T-47D breast and 27 µM in the assay with NCI-H226 lung. For the same compound, the TGI was 35.1 µM with SK-MEL-5 melanoma; 26.9 µM with UACC-62 melanoma; 42.5 µM in the assay with NCI-H522 lung; 29.6 µM in the assay with MDA-MB-231 breast; 20.4 µM in the assay with OVCAR-3 ovarian; more than 100 µM in the assay on A549 NSCLC. Besides, the TGI in the assay on ACHN renal was found to be 16.1 µM; with DU-145 prostate, 28.9 µM; in the assay with T-47D breast, 43 µM; in the assay on NCI-H226 lung it was 73.8 µM.

Consider `CCCCCCCCCCCCOC1C(C(COC2OC(C3COC(C)(C)O3)C3OC(C)(C)OC23)NC(=O)NS(=O)(=O)c2ccccc2)OC2OC(C)(C)OC21` (stereo not given), for which the GI50 with SK-MEL-5 melanoma was 2.51 µM; in the assay with UACC-62 melanoma, 3.27 µM; with NCI-H522 lung, 6.56 µM; in the assay with MDA-MB-231 breast, 9.94 µM; in the assay on OVCAR-3 ovarian, 2.78 µM; in the assay with A549 NSCLC, 4.58 µM. Besides, the GI50 is 4.22 µM in the assay with ACHN renal, 2.74 µM in the assay on DU-145 prostate, 8.66 µM with T-47D breast and 6 µM with NCI-H226 lung. Further, the TGI in the assay with SK-MEL-5 melanoma came to 6.34 µM; with UACC-62 melanoma, 13.7 µM; in the assay on NCI-H522 lung, 32.8 µM; in the assay on MDA-MB-231 breast, 24.3 µM; in the assay with OVCAR-3 ovarian it was 8.39 µM; in the assay with A549 NSCLC it was 27.3 µM. Besides, the TGI with ACHN renal came to 15.2 µM; with DU-145 prostate, 8.39 µM; in the assay with T-47D breast, 39.5 µM; in the assay with NCI-H226 lung, 45.8 µM.

With `O=c1oc2cc(N=Cc3ccc4c(c3)OCO4)ccc2c2ccccc12`, the TGI in the assay on SK-MEL-5 melanoma, with UACC-62 melanoma, with NCI-H522 lung, in the assay with MDA-MB-231 breast, with OVCAR-3 ovarian and in the assay on A549 NSCLC was more than 100 µM in each case. For the same compound, the TGI in the assay on ACHN renal, in the assay on DU-145 prostate, with T-47D breast and in the assay with NCI-H226 lung was more than 100 µM throughout.

For `Clc1ccc2nnnn2n1`, the GI50 with SK-MEL-5 melanoma is 2.24 µM; in the assay on UACC-62 melanoma, 2.77 µM; with NCI-H522 lung, 3.01 µM; in the assay on MDA-MB-231 breast, 2.64 µM; in the assay on OVCAR-3 ovarian it was 2.6 µM; in the assay on A549 NSCLC, 13.9 µM. In addition, the GI50 with ACHN renal was 5.27 µM; with DU-145 prostate, 2.31 µM; with T-47D breast, 6.25 µM; in the assay with NCI-H226 lung it was 4.84 µM. In addition, the TGI in the assay on SK-MEL-5 melanoma was 6.19 µM; with UACC-62 melanoma, 27.5 µM; in the assay with NCI-H522 lung it was 11.2 µM; with MDA-MB-231 breast it was 7.01 µM; in the assay on OVCAR-3 ovarian, 6.66 µM; in the assay on A549 NSCLC it was more than 100 µM. Also, the TGI was determined as 19.5 µM in the assay on ACHN renal, 6.41 µM with DU-145 prostate, 24 µM in the assay with T-47D breast and 35.9 µM in the assay on NCI-H226 lung.

For `COc1ccc(NC(=O)COCCOCCNC[C@@H]2C(=O)O[C@H]3[C@H]2CC/C(COC(=O)OC/C2=C/CC[C@@]4(C)O[C@H]4[C@H]4OC(=O)[C@@H](CN(C)C)[C@@H]4CC2)=C\CC[C@@]2(C)O[C@@H]32)c(O)c1C(N)=O`, the GI50 with SK-MEL-5 melanoma was 8.79 µM; in the assay on UACC-62 melanoma, 5.11 µM; in the assay with NCI-H522 lung, 0.888 µM; with MDA-MB-231 breast, 5.03 µM; in the assay on OVCAR-3 ovarian it was 1.47 µM; with A549 NSCLC, 31.8 µM. For the same compound, the GI50 in the assay with ACHN renal is 0.987 µM; in the assay with DU-145 prostate it was 7.21 µM; with T-47D breast, 1.71 µM; in the assay with NCI-H226 lung, 8.33 µM. Besides, the TGI with SK-MEL-5 melanoma is 17.3 µM; in the assay with UACC-62 melanoma, 11.4 µM; with NCI-H522 lung, 1.88 µM; with MDA-MB-231 breast, 11.3 µM; with OVCAR-3 ovarian it was 5.26 µM; in the assay on A549 NSCLC, more than 50 µM. In addition, the TGI in the assay on ACHN renal was 2.21 µM; in the assay with DU-145 prostate it was 13.7 µM; in the assay with T-47D breast it was 10.4 µM; in the assay on NCI-H226 lung it was 16.2 µM.

Consider `CCOC(=O)/C(=C\c1ccc(C#N)cc1)C(C)=O`, for which the TGI in the assay on SK-MEL-5 melanoma is 41 µM; in the assay with UACC-62 melanoma it was 17.5 µM; in the assay with NCI-H522 lung, 24.9 µM; in the assay with MDA-MB-231 breast, 33.3 µM; in the assay on OVCAR-3 ovarian, more than 100 µM; in the assay on A549 NSCLC it was more than 100 µM. The TGI in the assay on ACHN renal is 68.6 µM; in the assay with DU-145 prostate it was 37.7 µM; in the assay with T-47D breast it was 68.2 µM; in the assay with NCI-H226 lung, 89.3 µM.

Turning to `COc1cc(Cl)cc(-c2nn(-c3cccc(NC(=O)Nc4cc(C(F)(F)F)cc(C(F)(F)F)c4)c3)cc2-c2ccncc2)c1`, the GI50 was 1.09 µM in the assay with SK-MEL-5 melanoma; 0.416 µM in the assay with UACC-62 melanoma; 0.302 µM with NCI-H522 lung; 0.726 µM with MDA-MB-231 breast; 0.364 µM in the assay with OVCAR-3 ovarian; 0.386 µM in the assay with A549 NSCLC. The GI50 is 0.401 µM in the assay with ACHN renal, 0.53 µM with DU-145 prostate, 0.476 µM with T-47D breast and 0.965 µM in the assay with NCI-H226 lung. For the same compound, the TGI with SK-MEL-5 melanoma amounted to 2.33 µM; in the assay with UACC-62 melanoma, 1.71 µM; in the assay on NCI-H522 lung, 1.32 µM; with MDA-MB-231 breast, 2.26 µM; in the assay with OVCAR-3 ovarian it was 2.04 µM; in the assay with A549 NSCLC it was 5.62 µM. Also, the TGI was found to be 12.7 µM with ACHN renal, 12.4 µM in the assay with DU-145 prostate, 6.27 µM in the assay with T-47D breast and 7.67 µM with NCI-H226 lung.

For the compound `CC(=O)OCC(=O)[C@@]12OC(C)(C)O[C@@H]1C[C@H]1[C@@H]3CC=C4C[C@@H](O)CC[C@]4(C)[C@H]3CC[C@@]12C`, the TGI in the assay on SK-MEL-5 melanoma, with UACC-62 melanoma, with NCI-H522 lung, with MDA-MB-231 breast, in the assay on OVCAR-3 ovarian and in the assay on A549 NSCLC was more than 100 µM throughout. The TGI in the assay on ACHN renal, in the assay with DU-145 prostate, with T-47D breast and with NCI-H226 lung was more than 100 µM each time.
